Target: T1, YjgB (ECL_RS22935), alcohol dehydrogenase (Enterobacter cloacae, UniProt A0A0H3CR94)
T1 construct: gene ECL_04598; full-length ORF in pET-28a(+), His-tag fusion, E. coli BL21(DE3) with ZnCl2, HisTrap
Experiment: HPLC product formation assay
Type: biochemical
Conditions: 200 uM substrate, 0.2 mM NADPH, 50 mM Tris-HCl, pH 8.0, 37 °C, 10 uM enzyme

T1 sequence (A0A0H3CR94 entry or part of it): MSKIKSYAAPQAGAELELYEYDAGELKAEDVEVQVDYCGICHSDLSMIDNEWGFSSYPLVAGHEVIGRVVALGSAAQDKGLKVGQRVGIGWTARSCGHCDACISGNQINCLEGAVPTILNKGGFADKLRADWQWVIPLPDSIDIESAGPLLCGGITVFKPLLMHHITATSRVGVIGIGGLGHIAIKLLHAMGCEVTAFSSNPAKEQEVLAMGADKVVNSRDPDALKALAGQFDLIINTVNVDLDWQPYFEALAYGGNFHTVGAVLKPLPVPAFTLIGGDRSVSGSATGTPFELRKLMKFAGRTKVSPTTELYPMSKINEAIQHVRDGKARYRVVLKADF

Structure (SMILES) | HPLC product formation assay
O=CCc1c[nH]c2ccccc12 [indole-3-acetaldehyde] | In vitro enzymatic assays demonstrated that YjgB directly catalyzed the conversion of indole-3-acetaldehyde to indole-3-ethanol
OCCc1c[nH]c2ccccc12 [indole-3-ethanol] | YjgB directly catalyzed the conversion of indole-3-acetaldehyde to indole-3-ethanol

Source: PMC12175533, “A cell-cell communication signal from Enterobacter cloacae interfering with the signaling systems and virulence in Shigella sonnei” (Applied and Environmental Microbiology, 2025)
